One block for each molecule: values may come before it.
What was measured:
[1] = Lemon oil solubilization, sonication, droplet size by dynamic light scattering; format: physicochemical; conditions: for average droplet sizes after one month: lemon oil emulsions; for Emulsion Droplet Size / Emulsion Droplet Size, bottom emulsion layer / Emulsion Droplet Size, top emulsion layer: 1 weight-%
Procedure: MSL's used in this example are SL-hexyl ester (16), SL-octyl ester SL (17), and SL-dodecyl ester (18). To test the MSL capacity for lemon oil solubilization, the volume ratio of water to lemon oil, the concentration of surfactant, and the homogenization time (using a sonicator as the means of homogenization) were varied. Concentration of surfactant is calculated on a w/w basis relative to the mass of water being used. To form emulsions, the MSL or other surfactant is first dissolved in the water, oil is added to the solution, and finally the contents of the water/surfactant+oil system is sonicated. Subsequently, the emulsion is allowed to settle for 24 hours at 25° C. before measurements or visual observations are made.
To evaluate the stability of lemon oil solubilization, photographs of emulsions were recorded daily (after the initial 24 hours). Visual observations consisted of assessing solution clarity, extent of creaming and whether oil separation occurs. After selected time periods measurement of emulsion droplet size was performed by dynamic light scattering, which gives an average droplet size in the solution. […] If the emulsion had creamed (separated into two discreet emulsion layers) the average droplet size for each emulsion layer was determined. The results of this study are listed in Table 6, where the first number represents average droplet size in the top emulsion layer and the second represents the average droplet size in the bottom emulsion layer. […] A better performing emulsifier for this study is defined as functioning to form emulsions with smaller average particle size after the aging period.

[2] = Emulsification of paraffin and rapeseed oil by transalkylidenation MSLs; format: physicochemical; conditions: for change in emulsions during a 6-week aging period: 1 weight % surfactant, water:paraffin oil 1:1 (v/v), FIG. 22
Procedure: Mixtures of oil (paraffin or rapeseed) and water, in a 1:1 volume ratio, were prepared. MSL compounds 39, 40, and 41 at 1 weight % relative to water were each assessed as emulsifiers. Each mixture was agitated for 5 min using a homogenizer. […] This is in contrast to the studies above where sophorolipid esters and amides consisting of one hydrophobic arm formed oil-in-water mixtures. For compound 43 that has relatively more hydrophobic character than MSL compounds 39. 40 and 41, paraffin oil and water (1:1 volume ratio) were combined and MSL compound 43 (2 weight % to water) was then added. The mixture was agitated by a homogenizer for 5 minutes. […] The emulsion was stable during the 3 weeks it was monitored (FIG. 24). […] The cloudy parts are emulsified water, and the continuous phase is the oil. […] Condition: 15% (v/v) of water in rapeseeds oil, 1 weight % (relative to water) of compound 40 were mixed and stirred using a homogenizer for 5 minutes (scale bar: 100 μm).

[3] = Emulsion stability based on phase separation; format: physicochemical
Procedure: The emulsion was obtained by homogenizing the oil and water mixture and was allowed to settle at room temperature for 24 hours. […] Then, this mixture was homogenized at 13,000 rpm for 2 minutes. Thereafter, the resulting emulsion was left unagitated at 25° C. for 24 hours. Surfactants which give a larger emulsion phase are denoted as having higher emulsion effectiveness (Process Safety and Environment protection, 2005, 83, 38-46). […] Thus, unexpectedly, that longer alkyl chains, at least up to butyl and hexyl, provided improved interfacial stability at the paraffin oil/water interface. […] Apparently, ester bonds of SL-esters are less disruptive to organization at the oil water interface than amide bonds of SL-amides. […] The acidic SL (3) gave an 8% emulsion layer, much lower than the MSL examples given herein. Similarly, the natural SL (1) mixture gave a 10% emulsion layer. This performance is also far below that of SL-butyl amide (24), hexyl amide (25), butyl ester (8) and hexyl ester (16).
After homogenized at 13,000 rpm for 2 minutes, the emulsions were kept at room temperature and separation of the respective oil, emulsion and water layers was recorded for up to 1 month.

[4] = Emulsion droplet size distribution, Coulter LS 230 analyzer; format: physicochemical; conditions: paraffin oil-to-water 7:3 v/v, 25° C.
Procedure: Emulsified oil droplet size (average and standard deviation) was measured after suitable dilution of the emulsion phase using a Coulter LS 230 analyzer. […] Relative to natural and lactonic SL, selected MSLs show improved properties as emulsifiers on paraffin oil.
After being aged for 3-months, emulsified oil droplet size (average and standard deviation) was measured after suitable dilution of the emulsion phase using a Coulter LS 230 analyzer and the results are listed in Table 5. […] However, increasing the surfactant concentration from 1 to 2% did result in substantially smaller emulsion-phase droplet sizes. […] This is evidence that MSL's can stabilize oil phases greatly decreasing their tendency to undergo coalescence. […] It follows that the results of 3-month aging studies support the utility of selected MSLs for formation and stabilization of oil-in-water emulsions of paraffin oil phases. One skilled in the art would expect that the ability of these MSLs to stabilize paraffin oil phases teaches that they would also stabilize oil phases of similar structure.

[5] = Crude oil clearing/displacement activity; conditions: 20 μL of 1 mg/mL solution
Procedure: Oil cleaning assays were performed using Louisiana Crude, Arabian Light Crude, and Prudhoe Bay Crude as the oil phase. In one study, the oil clearing/displacement activity of MSLs were assessed using a crude oil layer on top of sea water in order to simulate oil spill type conditions. Sea water (20 mL) was transferred to plastic Petri dishes and 20 μL of a crude oil type was added on top of the water to create an oil layer. Subsequently, a 20 μL aliquot of MSL solution (1 mg/mL) was added dropwise to the top of the oil layer. The instantaneous formation of an oil clearing zone as well as the diameter of the clearing zone was determined as a function of the dispersant used. […] Furthermore, the oil displacement activity of SL-ethyl ester and SL-butyl ester was slightly higher than Triton-X-100 for Arabian Light crude.

[6] = Crude oil emulsification activity (turbidity at 610 nm); conditions: emulsifier 1 mg/mL
Procedure: Emulsification activity was assessed using Louisiana Crude, Arabian Light Crude, and Prudhoe Bay Crude as the oil phase. A 2 mL solution with emulsifier concentration of 1 mg/mL was prepared. A crude oil (10 mg) was added to the emulsifier aqueous solution, the mixture was vortexed for one minute and the emulsified mixture was allowed to stand for 20 minutes. Emulsification activity was determined by measuring turbidity of the emulsion mixture in a spectrophotometer at 610 nm. The results obtained using SL-ethyl ester, SL-butyl ester, the natural sophorolipid mixture and Triton X-100 as emulsifiers are expressed as D610 and are listed in Table 8. […] Furthermore, a remarkable improvement in emulsification activity was obtained for SL-butyl ester relative to the natural sophorolipid mixture. These comparative results for emulsification of Louisiana Crude, Arabian Light Crude, and Prudhoe Bay Crude oil phase could not be anticipated by one skilled in the art.

[7] = lemon oil/water 1/99, sonication 60 sec, 1 Week
[8] = lemon oil/water 1/99, sonication 60 sec, 5 Weeks
[9] = lemon oil/water 5/95, sonication 60 sec, 1 Week
[10] = lemon oil/water 5/95, sonication 60 sec, 5 Weeks
[11] = oil (paraffin or rapeseed) and water 1:1 volume ratio, 1 weight % relative to water
[12] = paraffin oil and water 1:1 volume ratio, 2 weight % to water
[13] = Arabian Light Crude on sea water
[14] = lemon oil/water 1/99, sonication 120 sec, 1 Week

change in emulsions during a 6-week aging period [2]: no substantial change
emulsion type [2, 12]: water-in-oil emulsion
time the emulsion was stable (monitored period) [2, 12]: ≥ 3 weeks
Molecule: CCCCCCCCCCCCOC(=O)/C=C/CCCCCCCC(=O)OC1C(COC(C)=O)OC(OC2C(OC(C)CCCCCC/C=C/C(=O)OCCCCCCCCCCCC)OC(COC(C)=O)C(O)C2O)C(O)C1O (stereo not drawn) [Compound 43]

emulsion layer, start ([3]; oil/water 7/3, 2%-by-weight, start of aging): 90%
emulsion layer percentage ([3]; paraffin oil/water 5/5, 2%-by-weight emulsifier, after 24 hours at 25° C.): 70%
Average droplet size ([4]; 0.5 weight %, 24 hours): 2.3 ± 0.2 μm
Average droplet size ([4]; 0.5 weight %, aged 3-months): 3.1 ± 0.1 μm
Average droplet size ([4]; 1 weight %, 24 hours): 2.1 ± 0.1 μm
Average droplet size ([4]; 1 weight %, aged 3-months): 2.7 ± 0.1 μm
Average droplet size ([4]; 2 weight %, 24 hours): 1.6 ± 0.2 μm
Average droplet size ([4]; 2 weight %, aged 3-months): 2.0 ± 0.1 μm
Oil displacement activity (diameter of the clearing zone) [5, 13]: 0.65 ± 0.21 cm
Oil displacement activity (diameter of the clearing zone) ([5]; Louisiana Crude on sea water): 0.5 ± 0.14 cm
Oil displacement activity (diameter of the clearing zone) ([5]; Prudhoe Bay Crude on sea water): 1.2 ± 0.42 cm
Molecule: CCCCCCCCCCCCOS(=O)(=O)[O-].[Na+] [SDS, Sodium dodecyl sulfate, reference compound]

Emulsion Droplet Size [1, 14]: 379 nm
Molecule: Rhamnolipid [reference compound]

Emulsion Droplet Size ([1]; lemon oil/water 1/99, sonication 120 sec, 1 Month): 233 nm
Emulsion Droplet Size [1, 14]: 173 nm
Molecule: TWEEN ® 60 [reference compound]

Oil displacement activity (diameter of the clearing zone) [5, 13]: 6.05 ± 0.07 cm
Oil displacement activity (diameter of the clearing zone) ([5]; Louisiana Crude on sea water): 5.5 ± 0.21 cm
Oil displacement activity (diameter of the clearing zone) ([5]; Prudhoe Bay Crude on sea water): 7.8 ± 0.07 cm
Molecule: Triton X-100 [reference compound]
Emulsification activity (D610) ([6]; Arabian Crude): 0.17
Emulsification activity (D610) ([6]; Louisiana Crude): 0.28
Emulsification activity (D610) ([6]; Prudhoe Crude): 0.49

Further lines, the molecule ahead of its results:

Molecule: CCCCCCCCOC(=O)CCCCCCCC=CCCCCCCC(C)OC1OC(CO)C(O)C(O)C1OC1OC(CO)C(O)C(O)C1O (stereo not drawn) [Compound 17, SL-octyl ester]
average droplet sizes after one month [1]: below 1 μm
Emulsion Droplet Size [1, 7]: 92 nm
Emulsion Droplet Size ([1]; lemon oil/water 1/99, sonication 60 sec, 2 Days): 52 nm
Emulsion Droplet Size [1, 8]: 183 nm
Emulsion Droplet Size [1, 9]: 179 nm
Emulsion Droplet Size ([1]; lemon oil/water 5/95, sonication 60 sec, 2 Days): 167 nm
Emulsion Droplet Size [1, 10]: 325 nm

Molecule: CCCCCCCCCCCCOC(=O)CCCCCCCC=CCCCCCCC(C)OC1OC(CO)C(O)C(O)C1OC1OC(CO)C(O)C(O)C1O (stereo not drawn) [Compound 18, SL-dodecyl ester]
average droplet sizes after one month [1]: below 1 μm
Emulsion Droplet Size [1, 7]: 238 nm
Emulsion Droplet Size [1, 8]: 277 nm
Emulsion Droplet Size, bottom emulsion layer [1, 9]: 327 nm
Emulsion Droplet Size, top emulsion layer [1, 9]: 389 nm
Emulsion Droplet Size, bottom emulsion layer [1, 10]: 208 nm
Emulsion Droplet Size, top emulsion layer [1, 10]: 551 nm

Molecule: COC(=O)/C=C/CCCCCCCC(=O)OC1C(COC(C)=O)OC(OC2C(OC(C)CCCCCC/C=C/C(=O)OC)OC(COC(C)=O)C(O)C2O)C(O)C1O (stereo not drawn) [Compound 39]
change in emulsions during a 6-week aging period [2]: no substantial change
emulsion type [2, 11]: water-in-oil emulsions
time the emulsions were stable (monitored period) [2, 11]: ≥ 6 weeks

Molecule: CCOC(=O)/C=C/CCCCCCCC(=O)OC1C(COC(C)=O)OC(OC2C(OC(C)CCCCCC/C=C/C(=O)OCC)OC(COC(C)=O)C(O)C2O)C(O)C1O (stereo not drawn) [Compound 40]
emulsion stability after 6 weeks ([2]; 15% (v/v) of water in rapeseeds oil, 1 weight % relative to water): emulsion remained stable
emulsion type [2, 11]: water-in-oil emulsions
time the emulsions were stable (monitored period) [2, 11]: ≥ 6 weeks

Molecule: CCCCOC(=O)/C=C/CCCCCCCC(=O)OC1C(COC(C)=O)OC(OC2C(OC(C)CCCCCC/C=C/C(=O)OCCCC)OC(COC(C)=O)C(O)C2O)C(O)C1O (stereo not drawn) [Compound 41]
emulsion type [2, 11]: water-in-oil emulsions
time the emulsions were stable (monitored period) [2, 11]: ≥ 6 weeks
